Here are results for 1 compound from patent publication US7927601B2, “Variants of hepatitis B virus with resistance to anti-viral nucleoside agents and applications thereof” (Melbourne Health, priority 2004, dated 2011).

Marks after values point to notes of the source that are not given here.

What all share (type): cell-based, HBV genotype A
In test [1] the test system is WT HBV-DNA construct transfected into HepG2 cells. As to the kind of experiment: transient transfection cell culture assay, extracellular HBV-DNA by real-time PCR, WT construct. The protocol: (§1) An extended (1.28×) HBV genome was cloned (HBV genotype A, subtype adw2) into a pBluescript KS (+) plasmid (Stratagene, La Jolla, Calif., USA), as described by Tacke et al, J Virol 78:8524-8535, 2004.
HepG2 cells were grown in Eagles minimum essential medium (LGC Promochem, Middlesex, UK), supplemented with 10% v/v fetal bovine serum at 37° C. and 5% v/v CO2. For cDNA transfections, 3×10^5 cells were seeded to semi-confluence onto each well of a 6-well plate and allowed to adhere overnight. […]
(§2) HBV viral particles from the cell culture supernatant were precipitated using 26% polyethylene glycol (PEG 8000, Sigma, St. Louis, Mo., USA), followed by DNase 1 digestion (Takara, Shiga, Japan). […] A quantitative real-time PCR was used to quantify HBV-DNA. Briefly, a 189-bp fragment of the X region was amplified in a LightCycler system (Roche), using the QuantiTect Probe PCR kit (Qiagen) and the following probes and primers: 3FL-XHybprobe (5′-ACGGGGCGCACCTCTCTTTACGCGG fluorescein-3′ (SEQ ID NO:23)), 5LC-Xhybprobe (5′LCRed 640 nm-CTCCCCGTCTGTGCCTTCTCATCTGC PH-3′ (SEQ ID NO:24)), X sense (5′-GAC GTC CTT TGT YTA CGT CCC GTC-3′ (SEQ ID NO:25)), and X antisense (5′-TGCAGAGGTGAAGCGAAGTGCACA-3′ (SEQ ID NO:26)). […]
Extracellular HBV-DNA was examined by real-time PCR, 5 days post-transfection and IC50 values were calculated.
Background: In qPCR the cycle at which signal appears reflects the starting amount.

For test [2], the system named is A194T (AT) mutant HBV-DNA construct transfected into HepG2 cells. Briefly: transient transfection cell culture assay, extracellular HBV-DNA by real-time PCR, rtA194T (AT) construct.
Text: as §1
(§3) Three mutated HBV plasmids were constructed using a Quikchange (Registered) II site-directed mutagenesis kit (Stratagene, La Jolla, Calif., USA). Plasmids contained either mutations rtL180M and rtM204V (LM), rtL180M, rtM204V and rtA194T (LMAT), or rtA194T (AT). […]
as §2
(§4) After adjusting for transfection efficiency, IC50 values were calculated from the HBV viral load using the following formula (Vandamme et al, Antiviral methods and protocols: 231, 2000): log IC50=log conc. […]

The subject of test [3] is L180M + M204V (LM) mutant HBV-DNA construct transfected into HepG2 cells. As to the kind of experiment: transient transfection cell culture assay, extracellular HBV-DNA by real-time PCR, rtL180M+rtM204V (LM) construct.
Text: as §1, §3, §2, §4

The subject of test [4] is L180M, A194T, M204V (LMAT) mutant HBV-DNA construct transfected into HepG2 cells. Briefly: transient transfection cell culture assay, extracellular HBV-DNA by real-time PCR, rtL180M+rtA194T+rtM204V (LMAT) construct.
Text: as §1, §3, §2, §4

Take `CC(C)OC(=O)OCOP(=O)(CO[C@H](C)Cn1cnc2c(N)ncnc21)OCOC(=O)OC(C)C.O=C(O)/C=C/C(=O)O` [tenofovir, Tenofovir disoproxil fumarate]: the “Fold IC50, extracellular DNA” value in test [1] (WT HBV construct (reference)) was 1^; in test [2] (A194T (AT) versus WT, 5-10 fold = partial resistance), 7.6^a; in test [3] (L180M + M204V (LM) versus WT, 5-10 fold = partial resistance), 5.7^a; in test [4] (M204V (LMAT) versus WT, >10-fold = resistance) it was >10*^b. In addition, the half-maximal inhibitory concentration (IC50) in test [1] (WT HBV construct, 5 days post-transfection) was 12.4 µM; in test [2] (A194T (AT) construct, HepG2 cells, 5 days post-transfection), 95 µM; in test [3] (L180M + M204V (LM) construct, HepG2 cells, 5 days post-transfection), 71 µM; in test [4] (M204V (LMAT) construct, HepG2 cells, value above the cell toxic level of tenofovir), greater than 120 µM.

Usually IC50 stands for the point on the concentration scale where inhibition reaches its midpoint.
